Results: US9926330B2, “Inhibitors of IRAK4 activity” (MERCK SHARP & DOHME CORP., priority 2014, dated 2018)

Biological target: GST tagged IRAK4 (Homo sapiens (Human), UniProt Q9NWZ3)
Test: IRAK4 Kinase Assay (IMAP fluorescence polarization)
Type: biochemical
Details: 0.5 nM GST tagged IRAK4, 100 nM fluorescent peptide substrate RP7030, 100 μM ATP, 30 minutes at 25° C., IMAP FP readout
Experimental: The kinase activity of IRAK4 is determined by its ability to catalyze the phosphorylation of a fluorescent polypeptide substrate. The extent of phosphorylation is measured using the IMAP technology (Molecular Devices) where the phosphorylated fluorescent substrate binds to the large M(III)-based nanoparticles which reduces the rotational speed of the substrate and thus increases its fluorescent polarization (FP).
20 μL reaction mixture contains 10 mM TriHCl, pH 7.2, 0.5 nM GST tagged IRAK4 (SignalChem), 100 nM fluorescent peptide substrate (RP7030, Molecular Devices), 100 μM ATP, 1 mM DDT, 1 mM MgCl2, and 0.01% Tween 20. The reaction is initiated by the addition of ATP. After incubation for 30 minutes at 25° C., 60 μL of Progressive IMAP Reagent (Molecular Devices) is added to stop the reaction. Change in RP7030's FP is determined by a FP reader (Analyst HT, LJL BioSystems).

GST tagged IRAK4, sequence (Q9NWZ3 whole entry): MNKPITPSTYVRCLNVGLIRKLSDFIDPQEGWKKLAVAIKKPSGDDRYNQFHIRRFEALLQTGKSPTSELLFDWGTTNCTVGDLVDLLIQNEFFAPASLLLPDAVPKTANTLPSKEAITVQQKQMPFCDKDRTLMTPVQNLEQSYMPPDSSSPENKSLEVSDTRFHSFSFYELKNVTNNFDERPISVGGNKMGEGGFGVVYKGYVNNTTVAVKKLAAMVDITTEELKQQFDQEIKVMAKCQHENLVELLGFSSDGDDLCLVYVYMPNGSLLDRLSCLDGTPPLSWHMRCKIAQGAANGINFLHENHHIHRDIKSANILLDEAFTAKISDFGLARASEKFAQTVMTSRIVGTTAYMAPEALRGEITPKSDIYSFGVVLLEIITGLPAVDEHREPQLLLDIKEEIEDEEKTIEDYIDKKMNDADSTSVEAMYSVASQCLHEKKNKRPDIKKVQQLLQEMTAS

Row | Structure (SMILES) | IC50
1 | Cc1ccc2ncnc(N[C@H]3CC[C@H](N4CC(O)C4)CC3)c2c1 [Example 2-6, 1-{trans-4-[(6-methylquinazolin-4-yl)amino]cyclohexyl}azetidin-3-ol] | 2350 nM
2 | Cc1ccc2ncnc(N[C@H]3CC[C@H](NCC4CCOCC4)CC3)c2c1 [Example 2-18, trans-N-(6-methylquinazolin-4-yl)-N′-(tetrahydro-2H-pyran-4-ylmethyl)cyclohexane-1,4-diamine] | 46 nM
3 | FC(F)(F)c1ccc2ncnc(N[C@H]3CC[C@H](N4CCOCC4)CC3)c2c1 [Example 1-4, N-(trans-4-morpholin-4-ylcyclohexyl)-6-(trifluoromethyl)quinazolin-4-amine] | 15 nM
4 | CCc1ccc2ncnc(N[C@H]3CC[C@H](N4CCOCC4)CC3)c2c1 [Example 3-4, 6-ethyl-N-(trans-4-morpholin-4-ylcyclohexyl)quinazolin-4-amine] | 8 nM
5 | N#CCCCc1ccc2ncnc(N[C@H]3CC[C@H](N4CCOCC4)CC3)c2c1 [Example 3-5, 4-(4-(((trans)-4-morpholinocyclohexyl)amino)quinazolin-6-yl)butanenitrile] | 142 nM
6 | Cc1ccc2ncnc(N[C@H]3CC[C@H](N4CCC(F)(F)C4)CC3)c2c1 [Example 2-8, N-[trans-4-(3,3-difluoropyrrolidin-1-yl)cyclohexyl]-6-methylquinazolin-4-amine] | 234 nM
7 | Cc1ccc2ncnc(NC3CCC(N4CCCC(C(F)(F)F)C4)CC3)c2c1 (stereo not shown) [Example 2-13, 6-methyl-N-{4-[3-(trifluoromethyl)piperidin-1-yl]cyclohexyl}quinazolin-4-amine] | 17 nM
8 | Cc1ccc2ncnc(N[C@H]3CC[C@H](N[C@@H](C)C4CC4)CC3)c2c1 [Example 2-21, trans-N-[(1S)-1-cyclopropylethyl]-N′-(6-methylquinazolin-4-yl)cyclohexane-1,4-diamine] | 73 nM
9 | Cc1ccc2ncnc(N[C@H]3CC[C@H](N[C@@H](C)C(F)F)CC3)c2c1 [Example 2-30, trans-N-[(1S)-2,2-difluoro-1-methylethyl]-N′-(6-methylquinazolin-4-yl)cyclohexane-1,4-diamine] | 126 nM
10 | Cc1ccc2ncnc(N[C@H]3CC[C@@H](N4CC(O)C4)CC3)c2c1 [Example 2-7, 1-{cis-4-[(6-methylquinazolin-4-yl)amino]cyclohexyl}azetidin-3-ol] | 37 nM
11 | CN(C)[C@H]1CC[C@H](Nc2ncnc3ccc(CO)cc23)CC1 [Example 8-1, (4-(((trans)-4-(dimethylamino)cyclohexyl)amino)quinazolin-6-yl)methanol] | 29 nM
12 | Cc1ccc2ncnc(O[C@H]3CC[C@H](N4CCOCC4)CC3)c2c1 [Example 1-7, 4-((trans)-4-((6-methylquinazolin-4-yl)oxy)cyclohexyl)morpholine] | 65 nM
13 | Cc1ccc2ncnc(N[C@H]3CC[C@@H](N4CC(F)C4)CC3)c2c1 [Example 2-2, N-[cis-4-(3-fluoroazetidin-1-yl)cyclohexyl]-6-methylquinazolin-4-amine] | 1360 nM
14 | Cc1ccc2ncnc(N[C@H]3CC[C@H](N4CC(F)C4)CC3)c2c1 [Example 2-3, N-[trans-4-(3-fluoroazetidin-1-yl)cyclohexyl]-6-methylquinazolin-4-amine] | 94 nM
15 | Cc1ccc2ncnc(N[C@H]3CC[C@H](N4CCNC(=O)C4)CC3)c2c1 [Example 2-5, 4-{trans-4-[(6-methylquinazolin-4-yl)amino]cyclohexyl}piperazin-2-one] | 113 nM
16 | CCCc1ccc2ncnc(N[C@H]3CC[C@H](N4CCOCC4)CC3)c2c1 [Example 4-4, N-(trans-4-morpholin-4-ylcyclohexyl)-6-propylquinazolin-4-amine] | 11 nM
17 | CCCCc1ccc2ncnc(N[C@H]3CC[C@H](N4CCOCC4)CC3)c2c1 [Example 4-3, 6-butyl-N-(trans-4-morpholin-4-ylcyclohexyl)quinazolin-4-amine] | 34 nM
18 | Cc1ccc2ncnc(NC3CCC(N4CCC(C(F)(F)F)CC4)CC3)c2c1 (stereo not shown) [Example 2-12, 6-methyl-N-{4-[4-(trifluoromethyl)piperidin-1-yl]cyclohexyl}quinazolin-4-amine] | 9380 nM
19 | Cc1ccc2ncnc(N[C@H]3CC[C@H](NCC(C)(C)C)CC3)c2c1 [Example 2-29, trans-N-(2,2-dimethylpropyl)-N′-(6-methylquinazolin-4-yl)cyclohexane-1,4-diamine] | 69 nM
20 | Cc1ccc2ncnc(N[C@H]3CC[C@H](N4CCOCC4)CC3)c2c1 [Example 1-3, 6-methyl-N-(trans-4-morpholin-4-ylcyclohexyl)quinazolin-4-amine] | 12 nM

Row | Structure (SMILES) | IC50
21 | Cc1ccc2ncnc(N[C@H]3CC[C@H](N[C@H]4CCOC(C)(C)C4)CC3)c2c1 [Example 2-19, trans-N-[(4S)-2,2-dimethyltetrahydro-2H-pyran-4-yl]-N′-(6-methylquinazolin-4-yl)cyclohexane-1,4-diamine] | 54 nM
22 | Cc1cc2c(N[C@H]3CC[C@H](N4CCOCC4)CC3)ncnc2cc1F [Example 1-5, 7-fluoro-6-methyl-N-(trans-4-morpholin-4-ylcyclohexyl)quinazolin-4-amine] | 32 nM
23 | Cc1ccc2ncnc(N[C@H]3CC[C@H](N4CCC5(COC5)C4)CC3)c2c1 [Example 2-9, 6-methyl-N-[trans-4-(2-oxa-6-azaspiro[3.4]oct-6-yl)cyclohexyl]quinazolin-4-amine] | 95 nM
24 | Cc1ccc2ncnc(N[C@H]3CC[C@H](N4CC(S(C)(=O)=O)C4)CC3)c2c1 [Example 2-1, 6-methyl-N-((1R,4R)-4-(3-(methylsulfonyl)azetidin-1-yl)cyclohexyl)quinazolin-4-amine] | 384 nM
25 | CCc1ccc2ncnc(N[C@H]3CC[C@H](N(C)C)CC3)c2c1 [Example 4-1, (trans)-N1-(6-ethylquinazolin-4-yl)-N4,N4-dimethylcyclohexane-1,4-diamine] | 18 nM
26 | Cc1ccc2ncnc(NC3CCC(N4CCCCC4C(F)(F)F)CC3)c2c1 (stereo not shown) [Example 2-14, 6-methyl-N-{4-[2-(trifluoromethyl)piperidin-1-yl]cyclohexyl}quinazolin-4-amine] | 3230 nM
27 | CN(C)[C@H]1CC[C@H](Nc2ncnc3ccc(/C=C/C4CC4)cc23)CC1 [Example 3-1, (trans)-N1-(6-((E)-2-cyclopropylvinyl)quinazolin-4-yl)-N4,N4-dimethylcyclohexane-1,4-diamine] | 145 nM
28 | Cc1ccc2ncnc(N[C@H]3CC[C@H](N[C@@H](C)C(C)(C)O)CC3)c2c1 [Example 2-23, (3S)-2-methyl-3-({trans-4-[(6-methylquinazolin-4-yl)amino]cyclohexyl}amino)butan-2-ol] | 123 nM
29 | Cc1ccc2ncnc(N[C@H]3CC[C@H](N4CC5(COC5)C4)CC3)c2c1 [Example 6-2, N-((trans)-4-(2-oxa-6-azaspiro[3.3]heptan-6-yl)cyclohexyl)-6-methylquinazolin-4-amine] | 101 nM
30 | C=Cc1ccc2ncnc(NC3CCC(N(C)C)CC3)c2c1 (stereo not shown) [Example 3-2, N′-(6-ethenylquinazolin-4-yl)-N,N-dimethylcyclohexane-1,4-diamine] | 7 nM
31 | Cc1ccc2ncnc(N[C@H]3CC[C@@H](N4CC(S(C)(=O)=O)C4)CC3)c2c1 [Example 2-10, 6-methyl-N-{cis-4-[3-(methylsulfonyl)azetidin-1-yl]cyclohexyl}quinazolin-4-amine] | 384 nM
32 | Cc1ccc2ncnc(NC3CCC(N4CCCCC4C(F)(F)F)CC3)c2c1 (stereo not shown) [Example 2-15, 6-methyl-N-{4-[2-(trifluoromethyl)piperidin-1-yl]cyclohexyl}quinazolin-4-amine] | 1760 nM
33 | Cc1cc2ncnc(N[C@H]3CC[C@H](N(C)C)CC3)c2cc1C [Example 1-1, (trans)-N1-(6,7-dimethylquinazolin-4-yl)-N4,N4-dimethylcyclohexane-1,4-diamine] | 1210 nM
34 | COC/C=C/c1ccc2ncnc(N[C@H]3CC[C@H](N(C)C)CC3)c2c1 [Example 3-3, trans-N′-{6-[(1E)-3-methoxyprop-1-en-1-yl]quinazolin-4-yl}-N,N-dimethylcyclohexane-1,4-diamine] | 54 nM
35 | CC(O)CCc1ccc2ncnc(N[C@H]3CC[C@H](N4CCOCC4)CC3)c2c1 (stereo partly drawn) [Example 7-1, 4-(4-(((trans)-4-Morpholinocyclohexyl)amino)quinazolin-6-yl)butan-2-ol] | 62 nM
36 | Cc1ccc2ncnc(N[C@H]3CC[C@H](NC4CCOCC4)CC3)c2c1 [Example 2-17, (trans)-N1-(6-methylquinazolin-4-yl)-N4-(tetrahydro-2H-pyran-4-yl)cyclohexane-1,4-diamine] | 77 nM
37 | Cc1ccc2ncnc(N[C@H]3CC[C@H](NCC4(C)COC4)CC3)c2c1 [Example 2-27, trans-N-[(3-methyloxetan-3-yl)methyl]-N′-(6-methylquinazolin-4-yl)cyclohexane-1,4-diamine] | 77 nM
38 | Cc1ccc2ncnc(N[C@H]3CC[C@H](NCC4CC4)CC3)c2c1 [Example 2-25, trans-N-(cyclopropylmethyl)-N′-(6-methylquinazolin-4-yl)cyclohexane-1,4-diamine] | 31 nM
39 | Cc1ccc2ncnc(NC3CCC(N4CCCC(C(F)(F)F)C4)CC3)c2c1 (stereo not shown) [Example 2-16, 6-methyl-N-{4-[3-(trifluoromethyl)piperidin-1-yl]cyclohexyl}quinazolin-4-amine] | 269 nM
40 | Cc1ccc2ncnc(N[C@H]3CC[C@@H](N4CCNC(=O)C4)CC3)c2c1 [Example 2-4, 4-{cis-4-[(6-methylquinazolin-4-yl)amino]cyclohexyl}piperazin-2-one] | 2200 nM
